{"source": "PubChem BioAssay AID330", "about": "(DTP/NCI, 2004)", "system": "P388 leukemia ip, CD2F1 mice, survival T/C", "test": "NCI In Vivo Anticancer Drug Screen. Data for tumor model P388 Leukemia (intraperitoneal) in CD2F1 (CDF1) mice", "details": "endpoint: median survival time, higher = longer survival", "procedure,_shortened": "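Mice carrying the transplanted tumor received test compound or vehicle. Survival was recorded in each group, and the value is the treated-group measurement divided by that of the vehicle-treated control group.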", "key": {"[1]": {"details": "dose: 50.0 mg/kg/injection, schedule: Q01DX009 (ip), vehicle: saline"}, "[2]": {"details": "dose: 100.0 mg/kg/injection, schedule: Q01DX009 (ip), vehicle: saline"}, "[3]": {"details": "dose: 50.0 mg/kg/injection, schedule: Q01DX005 (ip), vehicle: Klucel (hydroxypropylcellulose) (HPC)"}, "[4]": {"details": "dose: 100.0 mg/kg/injection, schedule: Q01DX005 (ip), vehicle: Klucel (hydroxypropylcellulose) (HPC)"}, "[5]": {"details": "dose: 200.0 mg/kg/injection, schedule: Q01DX005 (ip), vehicle: Klucel (hydroxypropylcellulose) (HPC)"}}, "note": "Where “and” joins values, the source holds several entries; their conditions need not be identical. Equal entries are not always repeated. Toxic doses and inconclusive results are not listed. Peptide text beside a SMILES is read from it. * marks the point of attachment. Trt = c1ccc(C(c2ccccc2)(c2ccccc2)*)cc1; Cbz = O=C(OCc1ccccc1)*"}
{"compound": "COC(=O)C(CSC(c1ccccc1)(c1ccccc1)c1ccccc1)NC(=O)C(CC(N)=O)NC(=O)OCc1ccccc1", "note": "(stereo not drawn) (Cbz-Asn-Cys(Trt)-OMe; configuration not given here)", "values": [{"measurement": "T/C", "setting": "dose: 12.5 mg/kg/injection, schedule: Q01DX009 (ip), vehicle: distilled water + Tween-80", "value": "92 % of control"}, {"measurement": "T/C", "setting": "dose: 25.0 mg/kg/injection, schedule: Q01DX009 (ip), vehicle: distilled water + Tween-80", "value": "97 % of control"}, {"measurement": "T/C", "setting": "dose: 50.0 mg/kg/injection, schedule: Q01DX009 (ip), vehicle: distilled water + Tween-80", "value": "122 % of control and 94 % of control"}, {"measurement": "T/C", "setting": "dose: 200.0 mg/kg/injection, schedule: Q01DX009 (ip), vehicle: distilled water + Tween-80", "value": "163 % of control"}]}
{"compound": "CCCCNC1(N(C)C)N=C(N(C)C)N=C(N(C)C)O1", "note": "(configuration not stated)", "values": [{"measurement": "T/C", "setting": "dose: 50.0 mg/kg/injection, schedule: Q01DX005 (ip), vehicle: saline", "value": "88 % of control"}, {"measurement": "T/C", "setting": "dose: 100.0 mg/kg/injection, schedule: Q01DX005 (ip), vehicle: saline", "value": "89 % of control"}, {"measurement": "T/C", "setting": "dose: 200.0 mg/kg/injection, schedule: Q01DX005 (ip), vehicle: saline", "value": "95 % of control"}]}
{"compound": "CN(C)c1ccc(/C=C/c2ccnc3ccccc23)c(F)c1", "values": [{"measurement": "T/C", "setting": "[1]", "value": "86 % of control"}, {"measurement": "T/C", "setting": "[2]", "value": "92 % of control"}, {"measurement": "T/C", "setting": "dose: 200.0 mg/kg/injection, schedule: Q01DX009 (ip), vehicle: saline", "value": "86 % of control"}]}
{"compound": "COc1cc(C2Oc3c(OC)cc(CC4C(=O)OCC4Cc4ccc(OC)c(OC)c4)cc3C2CO)ccc1O", "note": "(configuration not stated)", "values": [{"measurement": "T/C", "setting": "dose: 2.5 mg/kg/injection, schedule: Q01DX009 (ip), vehicle: saline with Tween-80", "value": "104 % of control"}, {"measurement": "T/C", "setting": "dose: 5.0 mg/kg/injection, schedule: Q01DX009 (ip), vehicle: saline with Tween-80", "value": "102 % of control"}, {"measurement": "T/C", "setting": "dose: 10.0 mg/kg/injection, schedule: Q01DX009 (ip), vehicle: saline with Tween-80", "value": "101 % of control"}, {"measurement": "T/C", "setting": "dose: 20.0 mg/kg/injection, schedule: Q01DX009 (ip), vehicle: saline with Tween-80", "value": "101 % of control"}]}
{"compound": "CC1=C2[C@H]3OC(=O)[C@@H](C)[C@@H]3CC[C@@]2(C)C=C/C1=N\\O", "values": [{"measurement": "T/C", "setting": "dose: 50.0 mg/kg/injection, schedule: Q01DX005 (ip), vehicle: saline with Tween-80", "value": "103 % of control"}, {"measurement": "T/C", "setting": "dose: 100.0 mg/kg/injection, schedule: Q01DX005 (ip), vehicle: saline with Tween-80", "value": "95 % of control"}, {"measurement": "T/C", "setting": "dose: 200.0 mg/kg/injection, schedule: Q01DX005 (ip), vehicle: saline with Tween-80", "value": "96 % of control"}]}
{"compound": "N#CCC(=O)O", "values": [{"measurement": "T/C", "setting": "dose: 18.75 mg/kg/injection, schedule: Q04DX003 (ip), vehicle: saline", "value": "100 % of control"}, {"measurement": "T/C", "setting": "dose: 37.5 mg/kg/injection, schedule: Q04DX003 (ip), vehicle: saline", "value": "100 % of control"}, {"measurement": "T/C", "setting": "dose: 75.0 mg/kg/injection, schedule: Q04DX003 (ip), vehicle: saline", "value": "90 % of control"}]}
{"compound": "CN1CCCC(Cc2ccccc2)S1(=O)=O", "note": "(configuration not stated)", "values": [{"measurement": "T/C", "setting": "dose: 100.0 mg/kg/injection, schedule: Q01DX001 (ip), vehicle: saline with Tween-80", "value": "98 % of control"}, {"measurement": "T/C", "setting": "dose: 200.0 mg/kg/injection, schedule: Q01DX001 (ip), vehicle: saline with Tween-80", "value": "99 % of control"}, {"measurement": "T/C", "setting": "dose: 400.0 mg/kg/injection, schedule: Q01DX001 (ip), vehicle: saline with Tween-80", "value": "98 % of control"}]}
{"compound": "CSc1ccc2c(=O)c(C(=O)O)c[nH]c2c1", "values": [{"measurement": "T/C", "setting": "dose: 100.0 mg/kg/injection, schedule: Q04DX003 (ip), vehicle: saline", "value": "108 % of control"}, {"measurement": "T/C", "setting": "dose: 200.0 mg/kg/injection, schedule: Q04DX003 (ip), vehicle: saline", "value": "99 % of control"}, {"measurement": "T/C", "setting": "dose: 400.0 mg/kg/injection, schedule: Q04DX003 (ip), vehicle: saline", "value": "107 % of control"}]}
{"compound": "Cc1ccc2nc3[nH]c(=O)[nH]c(=O)c3c(N)c2c1", "values": [{"measurement": "T/C", "setting": "[3]", "value": "101 % of control"}, {"measurement": "T/C", "setting": "[4]", "value": "104 % of control"}, {"measurement": "T/C", "setting": "[5]", "value": "102 % of control"}]}
{"compound": "Cc1ccc(NP2(Nc3ccc(C)cc3)=NP(Nc3ccc(C)cc3)(Nc3ccc(C)cc3)=NP(Nc3ccc(C)cc3)(Nc3ccc(C)cc3)=NP(Nc3ccc(C)cc3)(Nc3ccc(C)cc3)=N2)cc1", "values": [{"measurement": "T/C", "setting": "[3]", "value": "101 % of control"}, {"measurement": "T/C", "setting": "[4]", "value": "99 % of control"}, {"measurement": "T/C", "setting": "[5]", "value": "101 % of control"}]}
{"compound": "COc1ccc(/C=N/Nc2nnc3c4ccccc4c4ccccc4c3n2)cc1OC", "values": [{"measurement": "T/C", "setting": "dose: 50.0 mg/kg/injection, schedule: Q04DX002 (ip), vehicle: suspension in saline", "value": "86 % of control"}, {"measurement": "T/C", "setting": "dose: 100.0 mg/kg/injection, schedule: Q04DX002 (ip), vehicle: suspension in saline", "value": "89 % of control"}, {"measurement": "T/C", "setting": "dose: 200.0 mg/kg/injection, schedule: Q04DX002 (ip), vehicle: suspension in saline", "value": "90 % of control"}]}
{"compound": "O=C(Nc1ccccc1C1=NCCN1)c1ccc(C(=O)Nc2ccccc2C2=NCCN2)cc1", "values": [{"measurement": "T/C", "setting": "[3]", "value": "96 % of control"}, {"measurement": "T/C", "setting": "[4]", "value": "87 % of control"}, {"measurement": "T/C", "setting": "[5]", "value": "91 % of control"}]}
{"compound": "C[n+]1ccc(/C=C/c2ccccc2O)cc1", "values": [{"measurement": "T/C", "setting": "dose: 12.5 mg/kg/injection, schedule: Q01DX009 (ip), vehicle: saline", "value": "89 % of control"}, {"measurement": "T/C", "setting": "dose: 25.0 mg/kg/injection, schedule: Q01DX009 (ip), vehicle: saline", "value": "94 % of control"}, {"measurement": "T/C", "setting": "[1]", "value": "106 % of control"}, {"measurement": "T/C", "setting": "[2]", "value": "117 % of control"}]}
